Among the data in ChEMBL document CHEMBL3886292, “Functionally selective ligands of dopamine D2 receptors” (2015) are EC50 values, retold here.

In assay [1] the target is T1, D(2) dopamine receptor (Homo sapiens, UniProt P14416). Description: Beta-Arrestin Recruitment (Tango) Assay: Recruitment of β-arrestin to agonist-stimulated D2 receptors was performed using a previously described Tango-type assay (Barnea et al., Proc. Natl. Acad. Sci. USA 105:64 (2008)). Briefly, HTLA cells stably expressing β-arrestin-TEV protease and a tetracycline transactivator-driven luciferase were plated in 15-cm dishes in DMEM containing 10% fetal bovine serum and transfected (via calcium phosphate) with 20 μg of a D2V2-TCS-tTA construct (Barnea et al., Proc. Natl. Acad. Sci. USA 105:64 (2008)). The next day, cells were plated in white, clear-bottom, 384-well plates (Greiner, 10,000 cells/well, 50 μl/well) in DMEM containing 1% dialyzed fetal bovine serum. The following day, the cells were challenged with 10 μl/well of reference agonist (6 μM) or D2 test ligand (6 μM)±reference agonist prepared in HBS, 20 mM HEPES, pH 7.4, 18% DMSO (final ligand concentrations were 1 μM, final DMSO concentration was 3%). Type of assay: functional, cell-based.
T1 sequence (P14416 whole entry): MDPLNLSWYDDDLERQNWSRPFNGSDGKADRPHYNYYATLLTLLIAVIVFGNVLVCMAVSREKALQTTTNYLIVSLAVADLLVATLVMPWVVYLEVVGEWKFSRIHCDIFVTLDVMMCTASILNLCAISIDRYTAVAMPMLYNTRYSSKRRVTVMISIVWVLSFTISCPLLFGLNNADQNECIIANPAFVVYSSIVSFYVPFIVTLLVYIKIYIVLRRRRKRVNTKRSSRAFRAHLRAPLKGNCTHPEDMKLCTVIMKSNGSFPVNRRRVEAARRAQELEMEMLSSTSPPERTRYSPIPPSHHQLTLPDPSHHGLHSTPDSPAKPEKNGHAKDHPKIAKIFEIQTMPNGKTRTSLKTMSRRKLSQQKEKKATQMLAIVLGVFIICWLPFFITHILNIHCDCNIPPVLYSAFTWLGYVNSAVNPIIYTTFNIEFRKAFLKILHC

Assay [2] addresses T1, D(2) dopamine receptor. Description: cAMP GloSensor Assay: HEK293T cells co-expressing the cAMP biosensor GloSensor-22F (Promega) and hD2 receptors were seeded (10,000 cells/20 ul/well) into white, clear-bottom, tissue culture plates in HBSS, 10% FBS, 20 mM HEPES, pH 7.4. After a one- to two-hour recovery, cells were treated with 10 ul of 3x test or reference drug prepared in HBSS, 10% FBS, 20 mM HEPES, pH 7.4. After 30 minutes, cells were challenged with 10 ul of 1,200 nM (4x) isoproterenol in 8% (4x) GloSensor reagent. Luminescence per well per second was read on a Wallac TriLux microbeta plate counter. Data were normalized to the isoproterenol response (100%) and the maximal quinpirole-induced inhibition thereof (0%) and regressed using the sigmoidal dose-response function built into GraphPad Prism 4.0. Type of assay: functional, cell-based, HEK-293T.

As to `COc1ccccc1N1CCCN(CCCCOc2ccc3c(n2)NC(=O)CC3)CC1`, the EC50 turned out to be 6.1 nM at D(2) dopamine receptor [1] and 222 nM on D(2) dopamine receptor [2].
